Measurements as given in patent US9023849B2, “Substituted fused imidazoles and pyrazoles and use thereof” (Bayer Intellectual Property GmbH, priority 2012, dated 2015).

Assays:
rabbit aorta rings = assay: Vasorelaxant effect in vitro (rabbit aorta rings precontracted with phenylephrine); details: Oryctolagus cuniculus, phenylephrine contraction, read-out: IC50 (concentration needed to reduce the magnitude of the phenylephrine contraction by 50%)
Procedure: B-1. Vasorelaxant Effect In Vitro
Rabbits are stunned by a blow to the neck and exsanguinated. The aorta is removed, freed from adhering tissue and divided into rings of width 1.5 mm, which are placed individually under prestress into 5 ml organ baths with carbogen-sparged Krebs-Henseleit solution at 37° C. having the following composition (each mM): sodium chloride: 119; potassium chloride: 4.8; calcium chloride dihydrate: 1; magnesium sulphate heptahydrate: 1.4; potassium dihydrogenphosphate: 1.2; sodium hydrogencarbonate: 25; glucose: 10. The contractile force is determined with Statham UC2 cells, amplified and digitalized using A/D transducers (DAS-1802 HC, Keithley Instruments Munich), and recorded in parallel on linear recorders.
To obtain a contraction, phenylephrine is added to the bath cumulatively in increasing concentration. After several control cycles, the substance to be studied is added in increasing dosage each time in every further run, and the magnitude of the contraction is compared with the magnitude of the contraction attained in the last preceding run. This is used to calculate the concentration needed to reduce the magnitude of the control value by 50% (IC50 value). The standard administration volume is 5 μl; the DMSO content in the bath solution corresponds to 0.1%.

[1] = test system: recombinant guanylate cyclase reporter cell line; assay: Effect on a recombinant guanylate cyclase reporter cell line; type: cell-based; details: read-out: MEC (minimal effective concentration)
Procedure: B-2. Effect on a Recombinant Guanylate Cyclase Reporter Cell Line
The cellular action of the inventive compounds is determined on a recombinant guanylate cyclase reporter cell line as described in F. Wunder et al., Anal. Biochem. 339, 104-112 (2005).

human PDE 5 = human PDE 5 (Homo sapiens (Human), UniProt O76074); assay: Inhibition of human phosphodiesterase 5 (PDE 5), SPA assay; type: biochemical; details: PDE 5 preparation from human platelets, [8-3H]cGMP substrate
Procedure: B-6. Inhibition of Human Phosphodiesterase 5 (PDE 5)
PDE 5 preparations are obtained from human platelets by disruption (Microfluidizer®, 800 bar, 3 passes), followed by centrifugation (75 000 g, 60 min, 4° C.) and ion exchange chromatography of the supernatant on a Mono Q 10/10 column (linear sodium chloride gradient, elution with a 0.2-0.3M solution of sodium chloride in buffer (20 mM Hepes pH 7.2, 2 mM magnesium chloride). Fractions having PDE 5 activity are combined (PDE 5 preparation) and stored at −80° C.
To determine their in vitro action on human PDE 5, the test substances are dissolved in 100% DMSO and serially diluted. Typically, dilution series (1:3) from 200 μM to 0.091 μM are prepared (resulting final concentrations in the test: 4 μM to 0.0018 μM). In each case 2 μl of the diluted substance solutions are placed into the wells of microtitre plates (Isoplate-96/200 W; Perkin Elmer). Subsequently, 50 μl of a dilution of the above-described PDE 5 preparation are added. The dilution of the PDE 5 preparation is selected such that, during the later incubation, less than 70% of the substrate is converted (typical dilution: 1:100; dilution buffer: 50 mM tris/hydrochloric acid pH 7.5, 8.3 mM magnesium chloride, 1.7 mM EDTA, 0.2% BSA). The substrate, [8-^3H]cyclic guanosine-3′,5′-monophosphate (1 μCi/μl; Perkin Elmer) is diluted 1:2000 with assay buffer (50 mM tris/hydrochloric acid pH 7.5, 8.3 mM magnesium chloride, 1.7 mM EDTA) to a concentration of 0.0005 μCi/μl. By addition of 50 μl (0.025 μCi) of the diluted substrate, the enzyme reaction is finally started. The test mixtures are incubated at room temperature for 60 min and the reaction is stopped by adding 25 μl of a suspension of 18 mg/ml yttrium scintillation proximity beads in water (phosphodiesterase beads for SPA assays, RPNQ 0150, Perkin Elmer). The microtitre plates are sealed with a film and left to stand at room temperature for 60 min Subsequently, the plates are analysed for 30 s per well in a Microbeta scintillation counter (Perkin Elmer). IC50 values are determined using the graphic plot of the substance concentration against percentage PDE 5 inhibition.

| Structure (SMILES) | IC50 (rabbit aorta rings) [nM] | IC50 (human PDE 5) [nM] | minimal effective concentration [1] [µM] |
| --- | --- | --- | --- |
| Cc1ncc2c(-c3nnc4c(n3)NC(=O)C4(C)C)nn(Cc3cccc(F)c3F)c2n1 [Example 18, 3-[1-(2,3-Difluorobenzyl)-6-methyl-1H-pyrazolo[3,4-d]pyrimidin-3-yl]-7,7-dimethyl-5,7-dihydro-6H-pyrrolo[2,3-e][1,2,4]triazin-6-one] | 1140 | 16 | 0.3 |
| CC1(C)C(=O)Nc2nc(-n3nc(Cc4ccccc4F)c4ncc(F)cc43)nnc21 [Example 9, 3-[6-Fluoro-3-(2-fluorobenzyl)-1H-pyrazolo[4,3-b]pyridin-1-yl]-7,7-dimethyl-5,7-dihydro-6H-pyrrolo[2,3-e][1,2,4]triazin-6-one] | 641 | 85 | 0.1 |
| Cc1ncc2c(-c3nnc4c(n3)NC(=O)C4(C)C)nn(Cc3ccccc3F)c2n1 [Example 16, 3-[1-(2-Fluorobenzyl)-6-methyl-1H-pyrazolo[3,4-d]pyrimidin-3-yl]-7,7-dimethyl-5,7-dihydro-6H-pyrrolo[2,3-e][1,2,4]triazin-6-one] | 340 | 64 | 0.3 |
| CC1(C)C(=O)Nc2nc(-n3nc(Cc4ccccc4F)c4cc(F)ccc43)ncc21 [Example 8, 2-[5-Fluoro-3-(2-fluorobenzyl)-1H-indazol-1-yl]-5,5-dimethyl-5,7-dihydro-6H-pyrrolo[2,3-d]pyrimidin-6-one] | 95 | 400 | 0.3 |
| CC1(C)C(=O)Nc2nc(-n3nc(Cc4ccccc4F)c4ccccc43)nc(I)c21 [Example 3, 2-[3-(2-Fluorobenzyl)-1H-indazol-1-yl]-4-iodo-5,5-dimethyl-5,7-dihydro-6H-pyrrolo[2,3-d]pyrimidin-6-one] |  | 690 | 0.3 |
| CC1(C)C(=O)Nc2nc(-c3nn(Cc4ccccc4F)c4c3CCC4)nnc21 [Example 12, 3-[1-(2-Fluorobenzyl)-1,4,5,6-tetrahydrocyclopenta[c]pyrazol-3-yl]-7,7-dimethyl-5,7-dihydro-6H-pyrrolo[2,3-e][1,2,4]triazin-6-one] |  | 3500 | 1 |
| CC1(C)C(=O)Nc2nc(-c3nn(Cc4ccccc4F)c4c3CCC4)ncc21 [Example 11, 2-[1-(2-Fluorobenzyl)-1,4,5,6-tetrahydrocyclopenta[c]pyrazol-3-yl]-5,5-dimethyl-5,7-dihydro-6H-pyrrolo[2,3-d]pyrimidin-6-one] | 601 | 4000 | 0.3 |
| CC1(C)C(=O)Nc2nc(-n3nc(Cc4ccccc4F)c4ccccc43)ncc21 [Example 5, 2-[3-(2-Fluorobenzyl)-1H-indazol-1-yl]-5,5-dimethyl-5,7-dihydro-6H-pyrrolo[2,3-d]pyrimidin-6-one] | 22 | 440 | 0.03 |
| Cc1ncc2c(-c3ncc4c(n3)NC(=O)C4(C)C)nn(Cc3cccc(F)c3F)c2n1 [Example 17, 2-[1-(2,3-Difluorobenzyl)-6-methyl-1H-pyrazolo[3,4-d]pyrimidin-3-yl]-5,5-dimethyl-5,7-dihydro-6H-pyrrolo[2,3-d]pyrimidin-6-one] | 292 | 230 | 0.3 |
| CC1(C)C(=O)Nc2nc(-n3nc(Cc4ccccc4F)c4cc(F)ccc43)nc(I)c21 [Example 6, 2-[5-Fluoro-3-(2-fluorobenzyl)-1H-indazol-1-yl]-4-iodo-5,5-dimethyl-5,7-dihydro-6H-pyrrolo[2,3-d]pyrimidin-6-one] |  | 690 | 0.766 |
| CC1(C)C(=O)Nc2nc(-n3nc(Cc4c(F)ccc(F)c4F)c4cc(Cl)ccc43)ncc21 [Example 2, 2-[5-Chloro-3-(2,3,6-trifluorobenzyl)-1H-indazol-1-yl]-5,5-dimethyl-5,7-dihydro-6H-pyrrolo[2,3-d]pyrimidin-6-one] | 5160 | 3700 | 0.065 |
| Cc1ncc2c(-c3ncc4c(n3)NC(=O)C4(C)C)nn(Cc3ccccc3F)c2n1 [Example 15, 2-[1-(2-Fluorobenzyl)-6-methyl-1H-pyrazolo[3,4-d]pyrimidin-3-yl]-5,5-dimethyl-5,7-dihydro-6H-pyrrolo[2,3-d]pyrimidin-6-one] | 78 | 310 | 0.1 |
| CC1(C)C(=O)Nc2nc(-c3nn(Cc4ccccc4F)c4c3CCC4)nc(I)c21 [Example 10, 2-[1-(2-Fluorobenzyl)-1,4,5,6-tetrahydrocyclopenta[c]pyrazol-3-yl]-4-iodo-5,5-dimethyl-5,7-dihydro-6H-pyrrolo[2,3-d]pyrimidin-6-one] |  | 480 | 1 |

Continued, in another order:

| IC50 (rabbit aorta rings) [nM] | IC50 (human PDE 5) [nM] | Structure (SMILES) | minimal effective concentration [1] [µM] |
| --- | --- | --- | --- |
| 10000 | 450 | CCCc1nc(-n2nc(Cc3ccccc3F)c3ccccc32)nc2c1C(C)(C)C(=O)N2 [Example 28, 2-[3-(2-Fluorobenzyl)-1H-indazol-1-yl]-5,5-dimethyl-4-propyl-5,7-dihydro-6H-pyrrolo[2,3-d]-pyrimidin-6-one] | 1 |
| 1130 | 75 | CC1(C)C(=O)Nc2nc(-n3nc(Cc4ccccc4F)c4cc(F)ccc43)nnc21 [Example 21, 3-[5-Fluoro-3-(2-fluorobenzyl)-1H-indazol-1-yl]-7,7-dimethyl-5,7-dihydro-6H-pyrrolo[2,3-e][1,2,4]triazin-6-one] | 0.1 |
| 7730 | 530 | CC1(C)C(=O)Nc2nc(-n3nc(CCC(F)(F)C(F)(F)F)c4cc(F)ccc43)nnc21 [Example 22, 3-[5-Fluoro-3-(3,3,4,4,4-pentafluorobutyl)-1H-indazol-1-yl]-7,7-dimethyl-5,7-dihydro-6H-pyrrolo[2,3-e][1,2,4]triazin-6-one] | 1 |
|  | 25 | CC1(C)C(=O)Nc2nc(-c3nn(Cc4ccccc4F)c4cc(Cl)ccc34)nnc21 [Example 24, 3-[6-Chloro-1-(2-fluorobenzyl)-1H-indazol-3-yl]-7,7-dimethyl-5,7-dihydro-6H-pyrrolo[2,3-e][1,2,4]triazin-6-one] | 0.1 |
| 8060 | 440 | CCc1nc(-n2nc(Cc3ccccc3F)c3cc(F)ccc32)nc2c1C(C)(C)C(=O)N2 [Example 23, 4-Ethyl-2-[5-fluoro-3-(2-fluorobenzyl)-1H-indazol-1-yl]-5,5-dimethyl-5,7-dihydro-6H-pyrrolo[2,3-d]pyrimidin-6-one] | 1 |
| 1670 | 340 | Cc1nc(-n2nc(Cc3ccccc3F)c3cc(F)ccc32)nc2c1C(C)(C)C(=O)N2 [Example 27, 2-[5-Fluoro-3-(2-fluorobenzyl)-1H-indazol-1-yl]-4,5,5-trimethyl-5,7-dihydro-6H-pyrrolo[2,3-d]pyrimidin-6-one] | 0.3 |
|  | 160 | CC1(C)C(=O)Nc2nc(-c3nn(Cc4ncccc4F)c4cc(Cl)ccc34)nnc21 [Example 25, 3-[6-Chloro-1-[(3-fluoropyridin-2-yl)methyl]-1H-indazol-3-yl]-7,7-dimethyl-5,7-dihydro-6H-pyrrolo[2,3-e][1,2,4]triazin-6-one] | 0.3 |
| 794 | 95 | CC1(C)C(=O)Nc2nc(-c3nn(CCC(F)(F)C(F)(F)F)c4cc(Cl)ccc34)nnc21 [Example 26, 3-[6-Chloro-1-(3,3,4,4,4-pentafluorobutyl)-1H-indazol-3-yl]-7,7-dimethyl-5,7-dihydro-6H-pyrrolo[2,3-e][1,2,4]triazin-6-one] | 0.3 |
